According to patent publication US5484778A, “Phthalocyanine photosensitizers for photodynamic therapy and methods for their use” (priority 1993, dated 1996):

What was measured:
[1] = test system: Chinese hamster V79-379 cells; experiment: Uptake of phthalocyanines by V79 cells relative to AlPcCl (Table 1); assay type: cell-based; conditions: for Uptake, efficiency relative to 1 μM AlPcCl: 18 h
Procedure: Chinese hamster V79-379 lung fibroblasts were grown in monolayer culture in McCoy's 5A medium (Gibco Laboratories, Grand Island, N.Y.) augmented with 10% calf serum and buffered with 20 mM HEPES (pH 7.4).
Total uptake was determined by scraping the phthalocyanine-treated monolayer, collecting the cells on a glass-fiber filter, and extracting the phthalocyanine in ethanol, as previously described by Ramakrishnan, et al., 1989. (Ramakrishnan, N., M. E. Clay, M. F. Horng, A. R. Antunez, & H. H. Evans, "DNA Lesions and DNA Degradation in Mouse Lymphoma L5178Y Cells After Photodynamic Treatment Sensitized by Chloroaluminum Phthalocyanine",Photochem. Photobiol, in press, 1989). The amount of drug was determined by absorption at 674 nm and expressed relative to the number of cells, as measured in a Coulter cell counter on an aliquot of the cell population. Controls included cells not treated with drug, medium alone, and drug-containing medium without cells. The results of the total uptake of the various compositions of the present invention in comparison to AlPcCl are set forth below in Table 1.
The cells were treated with 1 μM AlPcCl (from Eastman Kodak, Rochester, N.Y.) or with phthalocyanine compositions I-VI (0.5-1.0 μM final concentration in the medium) for 18 hours by adding the appropriate volume of a 1.0 mM stock solution in dimethylformamide (DMF) to the culture medium. The growth medium was replaced with 4 ml Hank's balanced salt solution (HBSS), and the cells were irradiated. The light source was a 500 W tungsten-halogen lamp located approximately 29 inches below the surface of a glass exposure tray. The visible light administered to the cells was filtered to allow passage of only that portion of the visible spectrum above 600 nm (Lee Primary red filter No. 106, Vincent Lighting, Cleveland, Ohio). The fluence rate was approximately 0.074 kJ/m^2 /s at the level of the cell monolayer.
All of the compounds have been examined for the extent of cellular uptake after exposure of V79 cells to 1 μM or less in complete medium, and the data of Table 1 are presented relative to the uptake from 1 μM AlPcCl, which was 0.723±0.172 nmole/10^7 cells (mean ±S. D., 25 determinations). […] In particular, when the concentration of Compound IV was 1 μM in the medium, the uptake into the cells was sufficiently high that some of the uptake and phototoxicity studies were repeated at 0.5 μM.

[2] = test system: RIF-1 tumors; experiment: PDT of RIF-1 implanted tumors with PcIV and multiple exposures to light (Table 8); assay type: in vivo, C3H/HeN mice; conditions: for % of Mice Surviving: 1 mg/kg
Procedure: To overcome the regrowth, RIF-1 tumors were implanted in C3H/HeN mice, and the mice were treated with PcIV followed by multiple exposures to light. For multiple exposures to light to be successful, the tumor tissue must retain sufficient levels of the photosensitizer over the exposure period.
Thereafter, the tumors were irradiated with an argon ion pumped dye laser tuned at 675 nm for the total light dose of 135 J/cm^2 (75 mW/cm^2).

[3] = test system: human squamous cell carcinoma; experiment: PDT of human squamous cell carcinoma in athymic nude mice (Table 9); assay type: in vivo, Harlen-Sprague Dawley athymic nude mice; conditions: 1.0 mg/kg; for % Tumor Response: 24 hours post illumination; for % Tumor Cure: 7 days post treatment
Procedure: A single cell suspension of human squamous cell carcinoma was injected subcutaneously into the back of Harlen-Sprague Dawley athymic nude mice. […]

[4] = test system: chemically-induced benign skin papillomas; experiment: PDT of chemically induced skin tumors in SENCAR mice (FIG. 4); assay type: in vivo; conditions: 0.5 and 1.0 mg/kg i.p. in DPPC liposomes
Procedure: 6-week-old female SENCAR mice received a single topical application of 5 μg DMBA in 0.2 ml acetone on the dorsal skin as tumor initiator. One week later, the animals were started on twice-weekly topical applications of 1 μg TPA in 0.2 ml acetone as tumor promoter. All of the animals developed tumors at 12 weeks. Mice that developed 4-5 tumors per animal averaging 5-8 mm in diameter and 2-5 mm in thickness were used. Pc IV, entrapped in DPPC liposomes was administered intraperitoneally at doses of either 0.5 or 1.0 mg/kg and 24 hrs later the tumor area was illuminated with light from an argon pumped dye laser tuned at 675 nm for a total light dose of 135 J/cm^2 (75 mW/cm^2). All possible controls were included; either the animals were untreated, treated only with laser light or treated only with Pc IV alone.

[5] = test system: RIF-1 tumors; experiment: Histology and DNA fragmentation in PDT-treated tumors; assay type: in vivo, C3H/HeN mice
[6] = test system: V79 cells; experiment: Uptake of additional phthalocyanines into V79 cells (Table 2); conditions: for Uptake into V79 cells: 18 hours
Procedure: V79 cells Chinese hamster lung fibroblasts were cultured using the cell culture methods described above. […] When the filters were dry, the phthalocyanines were extracted into ethanol and the absorption determined at the peak wavelength, usually 668 nm.

Question: Which results are given for `CN(C)CCC[Si](C)(C)O[Si]1(O)n2c3c4ccccc4c2N=C2N=C(N=c4c5ccccc5c(n41)=NC1=NC(=N3)c3ccccc31)c1ccccc12` (stereo not shown) [Compound IV, HOSiPcOsi(CH3)2)(CH2)3 N(CH3)2]?
Answer: Uptake, efficiency relative to 1 μM AlPcCl ([1]; 0.5 μM): 1.3; Uptake, efficiency relative to 1 μM AlPcCl ([1]; 1.0 μM): 1.64; cellular uptake (in words) ([1]; V79 cells, 1 μM or less, compared with AlPcCl): taken up into the cells more efficiently than was AlPcCl; % of Mice Surviving ([2]; 360 h): 100%; % of Mice Surviving ([2]; 2880 h): 0%; % of Mice Surviving ([2]; DPPC liposomes, 30 days, exposure day 2): 100%; % of Mice Surviving ([2]; corn oil, 15 days, exposure day 2): 100%; % of Mice Surviving ([2]; corn oil, 15 days, exposure days 2-6): 100%; tumor regrowth ([2]; DPPC liposomes, 30 days after PDT, irradiated only one or two times): Tumor regrowth occurred 30 days after photodynamic therapy; tumor regrowth ([2]; DPPC liposomes, 120 days after PDT, three to five exposures): No tumor regrowth occurred even at 120 days; tumor regrowth ([2]; DPPC liposomes, 300 days after light treatment): no evidence of tumor regrowth; tumor cure ([2]; DPPC liposomes, irradiated three, four or five times at 24 hour interval): complete tumor cure was evident; tumor regrowth ([2]; corn oil, 15 days after PDT, all multiple exposure protocols): regrowth of tumors was evident 15 days after photodynamic therapy in all the multiple exposure protocols; % Tumor Response ([3]; 35 J/cm^2 675 nm, 15 min): 40%; % Tumor Cure ([3]; 35 J/cm^2 675 nm, 15 min): 0%; % Tumor Response ([3]; 75 J/cm^2 675 nm, 15 min): 80%; % Tumor Cure ([3]; 75 J/cm^2 675 nm, 15 min): 60%; % Tumor Response ([3]; 135 J/cm^2 675 nm, 15 min): 100%; % Tumor Cure ([3]; 135 J/cm^2 675 nm, 15 min): 100%; % Tumor Response ([3]; no light): 0%; % Tumor Cure ([3]; no light): 0%; tumor volume (eventual) ([4]; 675 nm, 135 J/cm^2): 0; tumor recurrence ([4]; 34 days): did not return for the length of the study, 34 days; apoptotic bodies in the tumor ([5]; histological examination): presence of apoptotic bodies in the tumor; DNA fragment sizes, multiples of ([5]; mouse, in vivo): 180-200 base pairs; uptake by V79 cells (in words) [6]: taken up particulary well; Uptake into V79 cells ([6]; 1 μM): 0.7 ± 0.2 n Moles/10^6 cells; Uptake into V79 cells ([6]; 2 μM): 3.1 ± 0.3 n Moles/10^6 cells; Uptake into V79 cells ([6]; 4 μM): 4.6 ± 2.9 n Moles/10^6 cells; Uptake into V79 cells, composite value ([6]; average of all data): 1.1 n Moles/10^6 cells/μM; Uptake (from Table 2) ([6]; repeated in Table 3): 1.1 n Moles/10^6 cells/μM
